Data published in patent publication US12612386B2, “Heteroaryl-triazole compounds as pesticides” (Bayer Aktiengesellschaft, priority 2020, dated 2026).

How the values were obtained:
Format in all cases: in vivo
[1] = tested on: brown planthopper (Nilaparvata lugens); experiment: Nilaparvata lugens spray test; details: 96 h
Procedure: Nilaparvata lugens—Spray Test
• Solvent: 78.0 parts by weight of acetone • 1.5 parts by weight of dimethylformamide • Emulsifier: alkylarylpolyglycol ether
To produce a suitable preparation of active compound, 1 part by weight of active compound is mixed with the stated amount of solvents and is diluted with water, containing an emulsifier concentration of 1000 ppm, to the desired concentration. Further test concentrations are prepared by dilution with emulsifier containing water.
Rice plants (Oryza sativa) are sprayed with a preparation of the active ingredient of the desired concentration and the plants are infested with the brown planthopper (Nilaparvata lugens).
After 4 days mortality in % is determined. 100% means all planthoppers have been killed and 0% means none of the planthoppers have been killed.

[2] = tested on: adult cat fleas (Ctenocephalides felis); experiment: Ctenocephalides felis in-vitro contact test, adult cat flea; details: 5 μg/cm^2 (=500 g/ha), after 48 hours
Procedure: Ctenocephalides felis—In-Vitro Contact Tests Adult Cat Flea
(§1) 9 mg compound is solved in 1 mL acetone and diluted with acetone to the desired concentration. 250 μL of the test solution is filled in 25 mL glass test tubes and homogeneously distributed on the inner walls by rotation and tilting on a shaking device (2 h at 30 rpm). With a compound concentration of 900 ppm, an inner surface of 44.7 cm^2 and a homogeneous distribution, a dose of 5 μg/cm^2 is achieved.
(§2) After the solvent has evaporated, each test tube is filled with 5-10 adult cat fleas (Ctenocephalides felis), closed with a perforated lid and incubated in a lying position at room temperature and relative humidity. After 48 hours efficacy is determined. The fleas are patted on the ground of the tubes and are incubated on a heating plate at 45-50° C. for at most 5 minutes. Immotile or uncoordinated moving fleas, which are not able to escape the heat by climbing upwards, are marked as dead or moribund.
An efficacy of 100% means all fleas are dead or moribund; 0% means no fleas are dead or moribund.

[3] = tested on: adult brown dog ticks (Rhipicephalus sanguineus); experiment: Rhipicephalus sanguineus in-vitro contact test, adult brown dog ticks; details: 48 h, read-out: efficacy (ticks dead or moribund)
Procedure: Rhipicephalus sanguineus—In-Vitro Contact Tests with Adult Brown Dog Ticks
as §1
as §2, with “brown dog ticks (Rhipicephalus sanguineus),” for “cat fleas (Ctenocephalides felis),”, “ticks” for “fleas”, “ticks,” for “fleas,”
An efficacy of 100% means all ticks are dead or moribund; 0% means no ticks are dead or moribund.

[4] = tested on: fall armyworm larvae (Spodoptera frugiperda); experiment: whole plant or invertebrate; details: 168 h
Summary of the method: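 Percent kill of Spodoptera frugiperda caterpillars, read 7 days after infestation of dried, spray-treated Zea mays leaf pieces. Spray preparation: compound in acetone plus dimethylformamide, diluted with emulsifier-containing water.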

[5] = tested on: cattle tick larvae (Rhipicephalus microplus), strain Parkhurst, resistant against synthetic pyrethroids; experiment: Rhipicephalus (Boophilus) microplus in-vitro contact test, larval cattle tick; details: 5 μg/cm^2 (=500 g/ha), after 48 hours
Procedure: Rhipicephalus (Boophilus) Microplus—In-Vitro Contact Tests Larval Cattle Tick (Strain Parkhurst, Resistant Against Synthetic Pyrethroids)
as §1
After the solvent has evaporated, each test tube is filled with 20-50 cattle tick larvae (Rhipicephalus microplus), closed with a perforated lid and incubated in a horizontal position at 85% relative humidity and 27° C. in an incubator. After 48 hours efficacy is determined. The larvae are patted on the ground of the tubes and negative geotactic behavior is recorded.
An efficacy of 100% means all larvae are dead or moribund; 0% means no larvae are dead or moribund.

[6] = tested on: larvae of the southern green stink bug (Nezara viridula); experiment: whole plant or invertebrate; details: 96 h
Summary of the method: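 Percent mortality of southern green stink bug larvae was recorded at day 4, with 100% meaning all dead. The larvae were placed on barley sprayed with the test solution. That solution was prepared from acetone/dimethylformamide concentrate diluted in emulsifier-containing water (1000 ppm).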

[7] = tested on: larvae of the banded cucumber beetle (Diabrotica balteata); experiment: Diabrotica balteata spray test; details: 168 h, 100 g/ha (=32 μg/well), after 7 days, read-out: efficacy (seedling growth)
Summary of the method: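 Efficacy is seedling survival after 7 days, where 0% means no seedlings grew and 100% means growth equal to untreated, uninfested controls. Wheat seedlings, germinated on agar for 1 day, were sprayed with the aqueous emulsifier dilution (acetone/DMF solvent) and then exposed to 10–20 banded cucumber beetle larvae.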

[8] = tested on: green peach aphid (Myzus persicae); experiment: Myzus persicae spray test (MYZUPE); details: 120 h, 100 g/ha, after 5 days
Summary of the method: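 Percent aphid kill, with 0% meaning none killed, was read 5 days after spraying. The preparation (acetone–DMF solvent, water with 1000 ppm emulsifier) was applied to Brassica pekinensis leaf disks carrying mixed-instar green peach aphids.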

| SMILES | mortality at 500 g/ha [1] [%] | efficacy (fleas dead or moribund) [2] [%] | pest or weed control at 5 µg/cm2, 500 g/ha [3] [%] | mortality at 100 g/ha [4] [%] | efficacy (larvae dead or moribund) [5] [%] | mortality at 100 g/ha [6] [%] | mortality at 500 g/ha [6] [%] | pest or weed control at 32 µg/disc, 100 g/ha [7] [%] | mortality at 100 g/ha [8] [%] |
| --- | --- | --- | --- | --- | --- | --- | --- | --- | --- |
| CC(C)N(C)C(=O)c1cc(-n2ncnc2[C@H](C)NC(=O)c2cc(OC(F)(F)F)cc(C3CC3)c2)ncn1 [I-57] | 100 | 100 | 100 | 100 | 100 |  |  |  |  |
| C[C@H](NC(=O)c1cc(C(F)(F)F)cc(C(F)(F)F)c1)c1ncnn1-c1cc(C(N)=O)ncn1 [I-135] | 100 |  | 100 | 100 | 100 | 100 | 100 | 80 |  |
| CCN(C)C(=O)c1cc(-n2nc(C)nc2[C@H](C)NC(=O)c2cc(C(F)(F)F)cc(C(F)(F)F)c2)ncn1 [I-63] | 100 | 100 | 100 | 100 | 100 |  |  | 100 |  |
| Cc1nc([C@H](C)NC(=O)c2cc(Cl)cc(SC(F)(F)F)c2)n(-c2cc(C#N)ncn2)n1 [I-6] |  |  | 100 | 100 | 100 |  |  | 100 |  |
| Cc1nc([C@H](C)NC(=O)c2cc(OC(F)F)cc(OC(F)F)c2)n(-c2cc(C(N)=O)ncn2)n1 [I-98] |  | 100 | 100 | 100 | 100 |  | 100 | 100 | 100 |
| CNC(=O)c1cc(-n2nc(C)nc2[C@H](C)NC(=O)c2cc(Br)cc(OC(F)(F)F)c2)ncn1 [I-65] |  | 100 | 100 | 100 | 100 |  | 100 | 100 | 90 |
| CC(C)N(C)C(=O)c1cc(-n2ncnc2[C@H](C)NC(=O)c2cc(Br)cc(OC(F)(F)F)c2)ncn1 [I-55] |  | 100 | 100 | 100 | 100 |  |  | 100 | 100 |
| Cc1nc([C@H](C)NC(=O)c2cc(Br)cc(OC(F)F)c2)n(-c2cc(C(N)=O)ncn2)n1 [I-89] |  | 100 | 100 | 100 | 100 |  | 100 | 100 | 100 |
| C[C@H](NC(=O)c1cc(Cl)cc(Cl)c1)c1ncnn1-c1cc(C(N)=O)ncn1 [I-69] |  | 100 | 100 | 100 | 100 |  | 100 | 100 | 70 |
| CNC(=O)c1cc(-n2ncnc2[C@H](C)NC(=O)c2cc(Br)cc(Br)c2)ncn1 [I-46] |  | 100 |  | 100 | 100 |  | 100 | 100 | 90 |
